Measurements published in patent EP0986381B1, “USE OF DITERPENES LIKE HYPOESTOXIDES FOR THE MANUFACTURE OF A MEDICAMENT FOR IMMUNOSUPPRESSION, ANTICANCER AND ANTIVIRAL TREATMENT” (Immune Modulation, Inc., priority 1997, dated 1998).

Legend:
Mouse spleen cells = assay: LPS-induced murine lymphocyte proliferation in vitro; format: cell-based; settings: all concentrations tested (1.5 µg/mL-50 µg/mL); LPS 5 µg/ml, 48 hours
Procedure: LPS is a B-cell mitogen in mice and it is also known to induce pro-inflammatory cytokines such as TNF-α, IL-6 and IL-1β in both murine and human mononuclear cells (Cunningham, A.J., ed; Understanding Immunology 1978;Academic Press, Inc., New York, USA). Murine lymphocytes were stimulated with LPS in vitro in the absence or presence of varying concentrations of JO-4 (1.5, 2.5, 5.0, 10.0, and 50.0 µg/mL).

human PBMCs = assay: PHA-induced proliferation of human PBMCs; format: cell-based; settings: 1.25-50.0 µg/mL, 4 days
Procedure: Human PBMCs were cultured for 4 days in the absence or presence of varying concentrations of JO-4 (1.25, 2.5, 5.0, 10.0 and 50.0 µg/mL). PHA is a potent T-cell mitogen and stimulates T-cells to produce IL-2.

HSV-1 = assay: In vitro HSV-1 replication assay, Hybriwix Probe Systems; format: cell-based, Herpes simplex virus; settings: Human alphaherpesvirus 1, 48 h, two days, African green monkey kidney cells
Procedure: The antiviral activity of the drug was determined using the Hybriwix™ Probe Systems (Herpes Antiviral Susceptibility Test kit: Diagnostic Hybrids, Inc., Athens, OH). Briefly, either HSV-1 or HSV-2 isolates (ATTC, Rockville, MD) were pre-adsorbed at 37°C and 5% CO2 in a humidified incubator for 60 minutes on African green monkey Kidney cells in a 24-well flat-bottom plate. Following pre-adsorption, the viral inoculum was removed and the growth medium containing various concentrations of appropriate drug was placed in appropriate wells. The culture was continued for 48 hours for the amplification of the virus. Quantification of the HSV DNA present in each well was determined by the nucleic acid hybridization method. The cells and/or virus were lysed with DNA wicking agent and the single-stranded DNA was immobilized on a Hybriwix™ filter by a vertical capillary absorption of the wicking agent/DNA solution. The amount of HSV target DNA from each well was determined using radioactive (I^125)-HSV DNA probe containing genetic sequences, which are homologous to HSV-1 or HSV-2 sequences. The amount of radioactivity present on the Hybriwix™ was dependent upon the amount of HSV DNA present after culture, and was determined in a gamma counter (Packard Instrument Co., Meriden, CT).

[1] = test system: HIV-1 isolate from a patient; assay: In vitro HIV-1 replication assay in PBMC, p24 antigen EIA; format: cell-based, Human Immunodeficiency Virus type 1; settings: Human immunodeficiency virus 1, 168 h, PHA-activated human PBMC, 7 days
Procedure: In Vitro HIV-1 Replication Assay: A standardized peripheral blood mononuclear cell culture assay for the determination of drug susceptibilities of clinical human HIV-1 isolates was utilized (Japour AJ et al. Antimicro Agents Chemother 1993; 37:1095-1101). Peripheral blood mononuclear cells (2 x 10^6 cells/ml) were stimulated with PHA (5 µg/ml) in complete culture medium at 37°C, in a 5% CO2-95% air-humidified incubator for 72 hours. The 3-day-old PHA-stimulated PBMC was sedimented at 400 g for 10 min at 20-24°C. Supernatant was removed and discarded. The cells were resuspended in complete culture medium supplemented with 3% IL-2. Cell viability was determined with 0.4% trypan blue. Viability was greater than 85%. Cell concentration was adjusted to 4x10^6/ml. Cells were dispensed in 50 µl volumes (2x10^5/well) into 96 well microtiter plates containing 50 µl complete culture medium. HIV-1 infected cultures were initiated with a patient's HIV-1 isolate (50 µl/well) at a multiplicity of infection (MOI) of 0.05 and 0.1 respectively. JO-4A was added to wells in 50 µl volumes at varying concentrations (0.0001 µM - 0.5 µM). The plates were incubated at 37°C and 5% CO2 in humidified chamber for 7 days. On day 4, half of the spent medium (100 µl) was discarded, and 50 µl of fresh complete medium and 50 µl of fresh JO-4A (varying concentrations as above) were added to wells containing spent JO-4A. […]

C=C1C(=O)C[C@H]2C[C@@H]3O[C@@]3(C)CC[C@@H]3O[C@@]3(C)C[C@@H](OC(C)=O)[C@H]1C2(C)C [JO-4, hypoestoxide]
inhibition of LPS-induced proliferation of murine lymphocytes (Mouse spleen cells): more than 50% | effect on PHA-induced proliferation of human lymphocytes (human PBMCs): inhibitory effect | inhibition at 3.125 µM (HSV-1; 3.125 µM): 53% | inhibition at 12.5 µM (HSV-1; 12.5 µM): 60% | IC50 (HSV-1; read-out: IC50 dose on HSV-1 inhibition): ~3120 nM

C=C1C(=O)CC2CC3OC3(C)CCC3OC3(C)CC(O)C1C2(C)C (stereo not drawn) [JO-4A]
IC50 [1]: 0.1 to 10 nM
